Laboratory results published in US20100317734A1, “FREE FATTY ACID BLENDS AND USE THEREOF” (priority 2007, published 2010).

Tested on: Staphylococcus aureus
Assay: Contact viability assay, 2 minutes exposure
Type: cell-based
Conditions: on its own
Method: The assay was conducted in glass tubes and all test components were equilibrated at the teat temperature in a water bath before inoculation and during the suspension period (2 minutes). The inoculum is an 18 hour culture of Staphylococcus aureus grown in Brain Heart Infusion Broth. The reduction in CFU's are illustrated in FIG. 4. FIG. 7 illustrates the antimicrobial effect of emulsions of caprylic:oleic, capric:oleic and lauric:oleic with varying concentration in oleic acid. The emulsions were prepared by method 2 in Example 3.

`CCCCCCCC/C=C\CCCCCCCC(=O)O` [oleic acid] was tested, and the antimicrobial effect was “no significant antimicrobial effect”.
